Laboratory results as given in the supplement of paper PMC10307832.

What was measured:
Experiment in all cases: relative viability (nuclei count vs DMSO), 5 days (fraction); higher = more cells survive
[1] = compound: O=c1[nH]cc(F)c(=O)[nH]1 [5-Fluorouracil] + CC(=O)c1c(C)c2cnc(Nc3ccc(N4CCNCC4)cn3)nc2n(C2CCCC2)c1=O [Palbociclib] (partner 0.5 µM)
Outline: (§1)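 Values are medians from duplicate plates. Each reflects relative viability, defined as the nuclei count of treated wells over that of vehicle wells. Lung cancer cell lines in 1536-well plates were pin-tool dosed one day after seeding with one drug alone or with a fixed anchor-drug dose plus five library-drug doses (not always all listed) in √10 steps, then fixed, stained and imaged at 4× after 5 days.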

[2] = compound: CN[C@@H]1C[C@H]2O[C@@](C)([C@@H]1OC)n1c3ccccc3c3c4c(c5c6ccccc6n2c5c31)C(=O)NC4 [Staurosporine] + Nc1ncn([C@H]2C[C@H](O)[C@@H](CO)O2)c(=O)n1 [Decitabine] (partner 2 µM)
Outline: as §1

[3] = compound: O=c1[nH]cc(F)c(=O)[nH]1 [5-Fluorouracil] + O=C(CCCCCCC(=O)Nc1ccccc1)NO [Vorinostat] (partner 1 µM)
Outline: as §1

[4] = compound: CN[C@@H]1C[C@H]2O[C@@](C)([C@@H]1OC)n1c3ccccc3c3c4c(c5c6ccccc6n2c5c31)C(=O)NC4 [Staurosporine] + Cc1nc(NC(=O)N2CCC[C@H]2C(N)=O)sc1-c1ccnc(C(C)(C)C(F)(F)F)c1 [Alpelisib] (partner 2 µM)
Outline: as §1

Row | Cell Line | relative viability ([1]; first compound 0.02 µM) | relative viability ([1]; first compound 0.2 µM) | relative viability ([1]; first compound 0.6325 µM) | relative viability ([1]; first compound 2 µM) | relative viability ([2]; first compound 0.005 µM) | relative viability ([2]; first compound 0.05 µM) | relative viability ([2]; first compound 0.1581 µM) | relative viability ([2]; first compound 0.5 µM) | relative viability ([3]; first compound 0.02 µM) | relative viability ([3]; first compound 0.2 µM) | relative viability ([3]; first compound 0.6325 µM) | relative viability ([3]; first compound 2 µM) | relative viability ([4]; first compound 0.005 µM) | relative viability ([4]; first compound 0.01581 µM) | relative viability ([4]; first compound 0.05 µM) | relative viability ([4]; first compound 0.1581 µM) | relative viability ([4]; first compound 0.5 µM) | relative viability ([2]; first compound 0.01581 µM)
1 | NCI-H2170 | 0.407 | 0.368 | 0.268 | 0.249 | 0.492 | 0.431 | 0.354 | 0.229 | 0.796 | 0.704 | 0.33 | 0.292 | 0.903 | 0.611 | 0.568 | 0.377 | 0.281 | 
2 | NCI-H2342 | 0.497 | 0.543 | 0.536 | 0.518 | 0.772 | 0.513 | 0.553 | 0.372 | 0.903 | 0.86 | 0.741 | 0.616 |  |  |  |  |  | 0.687
3 | LCLC-97TM1 | 0.221 | 0.228 | 0.215 | 0.157 | 0.257 | 0.217 | 0.217 | 0.223 | 0.575 | 1.07 | 0.857 | 0.272 | 0.205 | 0.18 | 0.166 | 0.185 | 0.179 | 0.198
4 | NCI-H1299 |  |  |  |  |  |  |  |  |  |  |  |  | 1.13 | 0.874 | 0.237 | 0.205 | 0.196 | 
5 | NCI-H322M |  |  |  |  | 0.667 | 0.529 | 0.475 | 0.49 | 0.932 | 0.917 | 0.787 | 0.757 | 0.74 | 0.723 | 0.725 | 0.446 | 0.328 | 0.49
6 | NCI-H1395 | 0.538 | 0.692 | 0.641 | 0.609 | 0.76 | 0.454 | 0.314 | 0.27 | 0.728 | 0.755 | 0.645 | 0.756 | 1.05 | 0.474 | 0.366 | 0.498 | 0.271 | 0.596
7 | NCI-H2023 | 0.397 | 0.155 | 0.0836 | 0.102 | 0.218 | 0.116 | 0.0753 | 0.0615 | 0.369 | 0.124 | 0.103 | 0.0849 | 0.56 | 0.28 | 0.274 | 0.15 | 0.0702 | 0.162
8 | NCI-H1651 | 0.512 | 0.467 | 0.283 | 0.272 | 0.623 | 0.324 | 0.146 | 0.131 | 0.529 | 0.531 | 0.246 | 0.245 | 0.778 | 0.564 | 0.385 | 0.223 | 0.109 | 0.509
9 | Calu-6 |  |  |  |  |  |  |  |  |  |  |  |  | 0.732 | 0.612 | 0.279 | 0.104 | 0.0766 | 
10 | NCI-H1650 | 0.275 | 0.379 | 0.31 | 0.236 | 0.397 | 0.341 | 0.168 | 0.124 | 0.552 | 0.386 | 0.329 | 0.198 |  |  |  |  |  | 0.533
11 | NCI-H1648 | 0.297 | 0.267 | 0.281 | 0.241 | 0.43 | 0.28 | 0.313 | 0.287 | 0.482 | 0.389 | 0.495 | 0.263 |  |  |  |  |  | 0.223
12 | ChaGo-K-1 | 0.958 | 0.914 | 0.803 | 0.51 | 0.641 | 0.544 | 0.435 | 0.432 | 0.814 | 0.687 | 0.622 | 0.384 |  |  |  |  |  | 
13 | CAL-12T | 0.515 | 0.419 | 0.359 | 0.251 |  |  |  |  | 0.759 | 0.591 | 0.563 | 0.447 | 0.374 | 0.146 | 0.125 | 0.0823 | 0.0729 | 
14 | NCI-H522 | 1 | 1.05 | 0.96 | 0.992 | 0.502 | 0.643 | 0.617 | 0.564 | 0.884 | 1.02 | 0.982 | 0.81 |  |  |  |  |  | 0.678
15 | SW 900 | 0.481 | 0.473 | 0.497 | 0.416 | 0.531 | 0.394 | 0.262 | 0.25 | 0.628 | 0.575 | 0.562 | 0.4 |  |  |  |  |  | 0.39
16 | IA-LM |  |  |  |  |  |  |  |  | 0.906 | 0.659 | 0.274 | 0.25 | 0.577 |  | 0.281 | 0.211 | 0.0757 | 
17 | A549 |  |  |  |  | 0.348 | 0.108 | 0.0369 | 0.0407 |  |  |  |  | 0.206 | 0.284 | 0.0899 | 0.0462 | 0.0282 | 0.239
18 | NCI-H596 |  |  |  |  | 1.01 | 0.712 | 0.366 | 0.504 | 0.668 | 0.553 | 0.397 | 0.384 | 0.59 | 0.325 | 0.284 | 0.174 | 0.165 | 0.885
19 | NCI-H1792 | 0.688 | 0.696 | 0.352 | 0.29 | 0.432 | 0.224 | 0.133 | 0.065 |  |  |  |  | 0.789 | 0.499 | 0.187 | 0.14 | 0.117 | 0.298
20 | NCI-H2228 | 0.79 | 0.733 | 0.509 | 0.356 |  |  |  |  | 0.665 | 0.373 | 0.407 | 0.321 | 0.658 | 0.204 | 0.155 | 0.148 | 0.0961 | 
